Residues, ends and D or L forms follow the SMILES beside them. *: point of attachment. Cbz = O=C(OCc1ccccc1)*; CH2F = FC*
Columns and labels:
[1] = test system: 2LMP human breast cancer xenografts; experiment: 2LMP breast cancer xenografts in athymic nude mice; format: in vivo
Procedure: Nude mice were inoculated s.c. with the human breast cancer cell line, 2LMP. Treatment with i.p. doses of 200 μg of 2E12 occurred on days 7, 10, 14, 17, 21, and 24 after tumor cell injection. Animals received i.v. adriamycin (doxorubicin) (6 mg/kg) on days 8, 12, and 16.
Athymic nude mice were injected s.c. with 3×10^7 2LMP cells. […] The growth of tumors was monitored over time. […] Tumor size and regression rates were determined.
Data from 6 independent experiments were analyzed by individual experiment. Treatment combinations were compared with respect to in vivo anti-tumor efficacy, i.e., inhibition of tumor growth, which was measured as three endpoints; extension of tumor doubling times, percentage of tumor regressions, and growth rates over time. The actual number of days at which the tumor doubled in surface area (product of two diameters) relative to baseline on day 7 after tumor cell injection was used in the doubling time analysis. The nonparametric Kruskal-Wallis test was used for median tumor doubling time comparisons between treatments. Fisher's exact test was used to compare the proportions of tumor regressions and relapse-free regressions across treatment groups. To determine if any combination therapy produced significant synergistic inhibition of tumor growth, i.e., more than additive, the growth curves from the serial area measurements were compared using a linear mixed model approach over the first 3 weeks after start of therapy (Lindsey, J. K. Models for Repeated Measurements, pp. 100-142, Oxford, 1993). To test for synergistic effects of the combination therapies, an interaction term was included in the model. If the interaction term was significant and the effect was inhibition of growth at a rate greater than additive then the interaction was considered synergistic.
A total of 166 animals, 10 treatment groups, and 6 independent experiments were included in the aggregate analysis. Treatment combinations were compared with respect to in vivo anti-tumor efficacy. The median tumor doubling times were analyzed using the Kruskal-Wallis test and Fisher's exact test was used to compare the proportions of tumor regressions and relapse-free regressions across treatment groups.

2LMP xenografts = experiment: TUNEL analysis of apoptosis in xenografts; format: in vivo, athymic nude mice; settings: day 14; untreated 1%
Procedure: One group of mice was untreated. The xeno grafts were dissected for the study of apoptosis on day 14 after tumor cell injection. The reason for the substantial reduction in treatment intensity compared to our standard treatment protocol was to allow adequate tumor tissue for analysis on day 14. Tunel assay for apoptosis in tumor xenografts was performed as follows. Five-micron paraffin sections of tissue were mounted on Superfrost/Plus slides and heated at 58° C. for 1 h. Tissue sections were deparaffinized in three changes of xylene and rehydrated with one change of absolute ethanol, 95% ethanol, and 70% ethanol, each in 5-min increments. Then, the sections were placed in Tris-buffered saline (0.5M Tris base, 0.15 M NaCl, 0.0002% Triton X-100, pH 7.6). Apoptotic nuclei were detected using an Apop Tag Peroxidase kit (Intergen, Purchase, N.Y.). Proteinase K (20 μg/ml in distilled deionized H2O) was added to the tissue specimens and incubated at room temperature for 15 min. Endogenous peroxidases were quenched with an aqueous solution of 3% hydrogen peroxide for 5 min. […] Approximately 10 random fields were evaluated for percentage of Tunel stained and percentage of intensely stained apoptotic bodies throughout the tissue.

Jurkat cells = experiment: Jurkat cell viability (ATPLite, MTT, PI exclusion); format: cell-based, human; settings: 50 ng/ml TRA-8 overnight
Procedure: (§1) Cell viability is determined using (1) the ATPLite kit according to the manufacturer's instructions (Packard Instruments, Meriden, Conn.); (2) the MTT Cell proliferation/viability kit (Sigma); or (3) PI staining of dead cells and analyzed by flow cytometry. At end of culture, cells are stained with 10 μg/ml PI and PI negative cells are gated as viable cells. For analysis of condensed nuclei of hepatocytes, cells are stained with 10 ng/ml […] (Molecular Probes) and analyzed by flow cytometry.

MMP-1 and MMP-3 = experiment: MMP ELISA of RA synovial cell supernatants; format: cell-based, human; settings: RA synovial cells, overnight
Procedure: Thus, it is possible that TRAIL, like TNF-α, may serve as a pro-inflammatory cytokine. […] The levels of the MMP-1 and MMP-3 in the culture supernatants are determined by the ELISA kits.

NF-κb = experiment: Gel-shift assay in RA synovial cells; format: cell-based, human; settings: 50 ng/ml TRAIL, Fas ligand or TRA-8, 20 ng/ml TNF-a
Procedure: There is considerable evidence to support the concept that there are close links between the signaling of apoptosis and the signaling of proliferation (45). It has been established that DR5 is able to activate a NF-kb pathway in addition to apoptosis signaling transduction, and that NF-κb activation may be able to transduce an anti-apoptosis signal. Therefore a gel-shift assay is carried out. […] The nuclear extracts are prepared and incubated with the […] [^32P]-labeled oligo-DNA probe. The results are analyzed using the cyclone phospha-imager (TopCount NXT, Packard Instrument Company, CT).

DR4 = target: T1, DR4 (Homo sapiens, UniProt O00220); experiment: ELISA binding to DR4-Ig fusion protein; settings: ELISA plates coated with DR4/hIgG1
T1 construct: fusion protein comprising the extracellular domain of human DR5 or DR4 and the Fc region of human IgG1
Procedure: ELISA plates are coated with 2 μg/ml of DR4-Ig or DR5-Ig fusion protein overnight. […] The reactions are developed by TMB substrate buffer and measured by the Benchmark Microplate Reader (BioRad). The Kd values are estimated by the one-site binding model of non-linear regression using GraphPad Prism software (GraphPad Software, San Diego, Calif.).

Daudi = experiment: Apoptosis by ATPLite, overnight; format: cell-based, human; settings: B lymphoma line Daudi
Procedure: as §1

H-9 cells = experiment: Apoptosis by ATPLite, overnight; format: cell-based, human
Procedure: as §1

Hs683 and U251-MG = experiment: Apoptosis by ATPLite, overnight; format: cell-based, human; settings: glioma lines Hs683 and U251-MG
Procedure: as §1

Jurkat and CEM-6 = experiment: Apoptosis by ATPLite, overnight; format: cell-based, human
Procedure: as §1

Molt-4 and U937 cells = experiment: Apoptosis by ATPLite, overnight; format: cell-based, human
Procedure: as §1

[2] = test system: Primary peripheral blood T cells; experiment: Apoptosis by ATPLite, overnight; format: cell-based, human
Procedure: as §1

SKW6.4, EB-3, and Raji = experiment: Apoptosis by ATPLite, overnight; format: cell-based, human; settings: B lymphoma lines SKW6.4, EB-3, Raji
Procedure: as §1

U87, U937 and Molt-4 = experiment: Apoptosis by ATPLite, overnight; format: cell-based, human; settings: glioma line U87, hematopoietic lines U937 and Molt-4
Procedure: as §1

primary B cells = experiment: Apoptosis by ATPLite, overnight; format: cell-based, human
Procedure: as §1

OA synovial cells = experiment: Apoptosis of primary synovial cells; format: cell-based, human; settings: OA72M cells
Text: (§2) Cell viability is the percentage of the cpm of treated cells versus the cpm of untreated cells.
(§3) The expression of DR5 on a panel of eight primary cultured synovial cells from patients with RA is compared with that on eight primary cultured synovial cells from patients with osteoarthritis (hereinafter referred to as “OA”). The eight human primary RA synovial cell cultures RA-1014, RA-1016, RA-1021, RA-512, RA-707, RA-811, RA-716, and RA-929 are kindly provided by Dr. M. Ohtsuki (Sankyo Co. Ltd., Tokyo, Japan) and cultured in DMEM supplemented with 10% FCS, penicillin, streptomycin, and glutamine. The […] OA synovial cell primary cell cultures are isolated from the synovial tissues of OA patients by a standard collagenase method and cultured under the same conditions. The passage number of all primary cells is under 10. The expression of DR5 is determined by FACs analysis as described in Example 5.

RA synovial cells = experiment: Apoptosis of primary synovial cells; format: cell-based, human; settings: RA-1014, RA-811, RA-716, RA929; high concentrations (>50 ng/ml)
Text: as §2, §3

normal human hepatocytes = experiment: Hepatocyte viability (ATPLite); format: cell-based
Text: For 24-hour cell viability assays, fresh normal human hepatocytes in 96-well plates were purchased from In Vitro Technology (Baltimore, Md.). […] For 6-hour viability assays, normal hepatocytes or hepatocellular cancer cells are isolated from fresh surgical specimens collected from UAB Tissue Procurement Center. All reagents for isolation of human hepatocytes including hepatocytes perfusion buffer, digest medium, washing medium, and attachment medium were purchased from Gibco. The tissue slides are digested in the Hepatocyte Digest Medium at 37° C. with shaking (50 rpm) for one hour. The isolated hepatocytes are harvested by low speed centrifugation (50 g, 3 min), and washed with the Hepatocyte Washing Medium six times. Single cell suspension of hepatocytes are cultured in the Attachment Medium containing 10% FCS in 96-well Matrigel plates (BD) for six hours. Non-attached hepatocytes are removed by twice washing with pre-warmed attachment medium.

[3] = aggregate, number of animals (%)

T1 sequence (O00220 24-239 limits assumed): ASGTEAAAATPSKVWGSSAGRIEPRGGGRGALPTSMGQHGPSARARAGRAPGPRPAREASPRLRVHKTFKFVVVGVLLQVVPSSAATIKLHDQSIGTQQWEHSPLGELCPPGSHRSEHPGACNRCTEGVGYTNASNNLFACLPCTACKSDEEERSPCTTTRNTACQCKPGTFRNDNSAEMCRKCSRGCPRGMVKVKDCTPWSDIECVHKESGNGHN

Molecule: COc1cccc2c1C(=O)c1c(O)c3c(c(O)c1C2=O)C[C@@](O)(C(=O)CO)C[C@@H]3O[C@H]1C[C@H](N)[C@H](O)[C@H](C)O1 [Adriamycin, adriamycin]
- Complete Regressions No relapse (%) [1, 3]: 0
- Complete Regressions Total (%) [1, 3]: 0
- complete regressions of tumor ([1]; individual experiments (FIG. 25-27), animals): no complete regressions
- inhibition of tumor growth compared to untreated controls ([1]; individual experiments, TRA-8 200 μg i.p. x6, Kruskal-Wallis test): did not differ from controls
- intense TUNEL stained cells (2LMP xenografts): 6%

Molecule: CC(NC(=O)C(NC(=O)OCc1ccccc1)C(C)C)C(=O)NC(CC(=O)O)C(=O)CF (stereo not drawn) [Z-VAD] (Cbz-Val-Ala-Asp-CH2F; configuration not given here)
- inhibition of TRA-8-induced cell death (Jurkat cells): completely inhibited

Molecule: IL-1b: proinflammatory cytokine
- production of MMPs (MMP-1 and MMP-3): increased

Molecule: TNF-α
- NF-κb activation (NF-κb): activated in a time-dependent fashion
- production of MMPs (MMP-1 and MMP-3): increased

Molecule: TRAIL: soluble recombinant human TRAIL (aa 95 to 281) with FLAG tag, Alexis; used with anti-FLAG crosslinker
- binding activity to DR4 (DR4): bound to DR4
- susceptibility to apoptosis (Daudi): much less susceptible
- susceptibility to apoptosis (H-9 cells): resistant
- sensitivity to apoptosis (Hs683 and U251-MG): resistant
- susceptibility to apoptosis (Jurkat and CEM-6): highly susceptible
- susceptibility to apoptosis (Molt-4 and U937 cells): partially susceptible
- susceptibility to apoptosis [2]: resistant
- susceptibility to apoptosis (SKW6.4, EB-3, and Raji): very susceptible
- sensitivity to apoptosis (U87, U937 and Molt-4): exhibited sensitivity
- apoptosis after treatment (primary B cells): did not undergo apoptosis
- susceptibility to apoptosis (OA synovial cells): completely resistant
- cell death (RA synovial cells): ~100%
- NF-κb activation (NF-κb): activated in a time-dependent fashion
- production of MMPs (MMP-1 and MMP-3): not associated with increased release
- hepatocytes killed (normal human hepatocytes; 6-hour culture, 500 ng/ml TRAIL): Over 20%
- hepatocytes killed (normal human hepatocytes; 24-hour culture, 1 μg/ml, TRAIL plus crosslinker): more than 80%
- hepatocytes killed in the presence of cycloheximide (normal human hepatocytes; four-hour culture, 1 μg/ml cycloheximide): greater than 70%

B1: Fas ligand: recombinant soluble Fas ligand used with enhancer (protein, UniProt P48023 103-281, looked up)
extracellular domain: QLFHLQKELAELRESTSQMHTASSLEKQIGHPSPPPEKKELRKVAHLTGKSNSRSMPLEWEDTYGIVLLSGVKYKKGGLVINETGLYFVYSKVYFRGQSCNNLPLSHKVYMRNSKYPQDLVMMEGKMMSYCTTGQMWARSSYLGAVFNLTSADHLYVNVSELSLVNFEESQTFFGLYKL
modifications: extracellular domain
notes: recombinant soluble Fas ligand used with enhancer
- NF-κb activation (NF-κb): unable to induce NF-κb activation
